Literature values in US20150250887A1, “METHOD OF PREPARING RESIN TINCTURES” (JALEVA PHARMACEUTICALS, LLC, priority 2012, published 2015).

tested on: not given; settings: pH 7.4

Point of comparison: `C[C@]12CC[C@H]3[C@@H](CCC4=CC(=O)CC[C@@]43C)[C@@H]1CC[C@@H]2O` [testosterone], “log D” value 3.18. Against it:
- CN1CCCC1c1cccnc1 (stereo not shown) [nicotine] — lower, −0.62

same assay, conditions: pH about 7.4

Point of comparison: `CCCc1nc(C)c2c(=O)[nH]c(-c3cc(S(=O)(=O)N4CCN(CC)CC4)ccc3OCC)nn12` [vardenafil], “log D” value 3.71. Against it:
- O=C(O)Cc1ccccc1Nc1c(Cl)cccc1Cl [diclofenac] — lower, 1.44
- CNS(=O)(=O)CCc1ccc2[nH]cc(C3CCN(C)CC3)c2c1 [naratriptan] — lower, −0.85
- Cc1nccn1CC1CCc2c(c3ccccc3n2C)C1=O (stereo not shown) [ondansetron] — lower, 1.2
- CCCc1nn(C)c2c(=O)[nH]c(-c3cc(S(=O)(=O)N4CCN(C)CC4)ccc3OCC)nc12 [sildenafil] — lower, 2.26
- CC1=C(/C=C/C(C)=C/C=C/C(C)=C/C(=O)O)C(C)(C)CCC1 [tretinoin] — higher, 4.19

tested on: skin; settings: not given

For `CC(=O)O.CC(=O)O.NC(=N\CCCCCC/N=C(N)/N=C(\N)Nc1ccc(Cl)cc1)/N=C(\N)Nc1ccc(Cl)cc1` [chlorhexidine acetate], the skin irritant properties is given as “strong skin irritant”.
For `N=C(NCCCCCCNC(=N)NC(=N)Nc1ccc(Cl)cc1)NC(=N)Nc1ccc(Cl)cc1.O=C(O)[C@H](O)[C@@H](O)[C@H](O)[C@H](O)CO.O=C(O)[C@H](O)[C@@H](O)[C@H](O)[C@H](O)CO` [chlorhexidine gluconate], the skin irritant properties is given as “does not exhibit as strong irritant properties”.
